According to patent publication US20040220239A1, “Inhibitors of serine protease activity methods and compositions for treatment of nitric oxide-induced clinical conditions” (priority 2003, published 2004):
Entries after “also recorded” stand apart in the source; their conditions may differ.

Legend:
Assay type in all cases: cell-based
RAW 264.7 macrophages = experiment: NO release induced by LPS and γ-IFN in macrophagic cells (nitrite, Greiss reagent); conditions: induction with γ-IFN and LPS, FIG. 1, FIG. 4
Description: RAW 264.5 macrophages are selected for measuring the effect of α1-antitrypsin on NO release. RAW 264.7 cell monolayers are pretreated for 1 hour with α1-antitrypsin (0.1-3 mg/ml), followed by costimulation by interferon-γ(10 U/ml), and LPS (1 ng/ml) for 18 hours. Aliquots (100 μl) of supernatant are combined with equal volumes of Greiss reagent and incubated at room temperature for 10 minutes. The colorimetric determination of nitrite concentration is measured by absorbance at 550 nm and quantified with a standard curve. The combination of LPS and interferon-γ is a potent stimulus for NO release in […] macrophages. The effect of α1-antitrypsin at 3 mg/ml on NO expression is measured.

NF-κB = experiment: Electrophoretic mobility shift assay of NF-κB induced by interleukin-18; conditions: induced by incubation with IL-18, EMSA; FIG. 3
cytomegalovirus (CMV) = experiment: Cytomegalovirus replication in infected RAW 264.5 macrophages; conditions: RAW 264.5 macrophages infected with CMV; FIG. 6
[1] = test system: p-ERK (p42/p44 MAP kinase); experiment: Western blot of p-ERK expression; conditions: FIG. 5
[2] = test system: herpes simplex virus (HSV); experiment: Herpes simplex virus replication; conditions: FIG. 7
iNOS protein = experiment: Induction of iNOS protein by LPS and γ-interferon, Western blot; conditions: macrophagic cells, γ-IFN and LPS, FIG. 2
Description: RAW 264.7 macrophage monolayers are treated for 1 hour with α1-antitrypsin (3 mg/ml), followed by costimulation by interferon-γ (10 U/ml), and LPS (1 ng/ml) for 18 hours. The cells are lysed by exposure to lysis solution (50 mm Tris-HCl, pH 8.0, 137 mm NaCl, 10% (v/v) glycerol, 1% (v/v), Nonidet P-40, 1 mM NaF, 10 μg/ml leupeptin, […] aprotinin, 2 mM sodium vanadate, and 1 mM phenylmethylsulfonyl fluoride). Samples containing equivalent amounts of total protein are subjected to SDS-polyacrylamide gel electrophoresis. Western blots of the gels are prepared, non-specific sites blocked by incubation overnight with 5% non-fat dry milk, and iNOS detected by incubation with iNOS anti-serum (Alexis Corporation, 1:1000 in 5% (w/v) bovine serum albumin in a solution of 20 mm Tris-HCl, pH 7.6, 137 mM […], and 0.005% (v/v) Tween 20). Using horseradish peroxidase-conjugated second antibody, the antibody bound to iNOS is detected by enhanced chemiluminescence. The effect of the combination of interferon-γ, and LPS on induction of iNOS in the cell extract and the effect of pretreatment with α1-antitrypsin are measured.

| Compound | effect on NO levels (measured as NO2-) induced by γ-IFN and LPS (RAW 264.7 macrophages) | effect on induction of active NF-κB (NF-κB) | effect on CMV replication (cytomegalovirus (CMV)) | effect on level and/or phosphorylation of p-ERK [1] | effect on replication of HSV [2] | effect on induction of iNOS protein (iNOS protein) |
| --- | --- | --- | --- | --- | --- | --- |
| Cc1cccc(Cc2nnc(C(=O)C(NC(=O)[C@@H]3CCCN3C(=O)[C@@H](NC(=O)OCc3ccccc3)C(C)C)C(C)C)o2)c1 (stereo partly drawn) [CE-2072, benzyloxycarbonyl-L-valyl-N-[1-(2-[5-(3-methylbenzyl)-1,3,4-oxadiazolyl]carbonyl)-2-(S)-methylpropyl]-L-prolinamide, reference compound] | inhibits NO levels | inhibit the induction of active NF-κB |  |  |  |  |
| α1-antitrypsin | efficiently block γ-IFN- and LPS-induced NO synthesis; also recorded: inhibits NO levels | inhibit the induction of active NF-κB | blocks CMV replication | inhibits the level and/or phosphorylation of p-ERK | inhibits replication of HSV | inhibits induction of iNOS protein |
